Test results taken from ChEMBL document CHEMBL1143799, “Synthesis and primary cytotoxicity evaluation of new imidazo[2,1-b]thiazole derivatives” (2007).
Each block holds one compound with its values, some of them ahead of it.

Key:
Assay type in all cases: functional
[1] = system: CCRF-CEM; test: Growth inhibition of human CCRF-CEM cells after 48 hrs by SRB protein assay; conditions: for TGI: read-out: Log TGI (converted)
[2] = system: RPMI-8226; test: Growth inhibition of human RPMI8226 cells after 48 hrs by SRB protein assay; conditions: RPMI-8226, 48 h; for TGI: read-out: Log TGI (converted)
[3] = system: A549; test: Growth inhibition of human A549 cells after 48 hrs by SRB protein assay; conditions: A549, 48 h; for TGI: read-out: Log TGI (converted)
[4] = system: EKVX; test: Growth inhibition of human EKVX cells after 48 hrs by SRB protein assay; conditions: for TGI: read-out: Log TGI (converted)
[5] = system: NCI-H23; test: Growth inhibition of human NCI-H23 cells after 48 hrs by SRB protein assay; conditions: NCI-H23, 48 h; for TGI: read-out: Log TGI (converted)
[6] = system: NCI-H460; test: Growth inhibition of human NCI-H460 cells after 48 hrs by SRB protein assay; conditions: NCI-H460, 48 h; for TGI: read-out: Log TGI (converted)
[7] = system: NCI-H522; test: Growth inhibition of human NCI-H522 cells after 48 hrs by SRB protein assay; conditions: NCI-H522, 48 h; for TGI: read-out: Log TGI (converted)
[8] = system: COLO 205; test: Growth inhibition of human COLO205 cells after 48 hrs by SRB protein assay; conditions: COLO 205, 48 h; for TGI: read-out: Log TGI (converted)
[9] = system: HCC 2998; test: Growth inhibition of human HCC2998 cells after 48 hrs by SRB protein assay; conditions: HCC 2998, 48 h; for TGI: read-out: Log TGI (converted)
[10] = system: HCT-116; test: Growth inhibition of human HCT116 cells after 48 hrs by SRB protein assay; conditions: HCT-116, 48 h; for TGI: read-out: Log TGI (converted)
[11] = system: HCT-15; test: Growth inhibition of human HCT15 cells after 48 hrs by SRB protein assay; conditions: HCT-15, 48 h; for TGI: read-out: Log TGI (converted)
[12] = system: HT-29; test: Growth inhibition of human HT29 cells after 48 hrs by SRB protein assay; conditions: HT-29, 48 h; for TGI: read-out: Log TGI (converted)
[13] = system: SW-620; test: Growth inhibition of human SW620 cells after 48 hrs by SRB protein assay; conditions: SW-620, 48 h; for TGI: read-out: Log TGI (converted)
[14] = system: SF-295; test: Growth inhibition of human SF295 cells after 48 hrs by SRB protein assay; conditions: SF-295, 48 h; for TGI: read-out: Log TGI (converted)
[15] = system: SF-539; test: Growth inhibition of human SF539 cells after 48 hrs by SRB protein assay; conditions: SF-539, 48 h; for TGI: read-out: Log TGI (converted)
[16] = system: SNB-19; test: Growth inhibition of human SNB19 cells after 48 hrs by SRB protein assay; conditions: SNB-19, 48 h; for TGI: read-out: Log TGI (converted)
[17] = system: SNB-75; test: Growth inhibition of human SNB75 cells after 48 hrs by SRB protein assay; conditions: SNB-75, 48 h; for TGI: read-out: Log TGI (converted)
[18] = system: LOX IMVI; test: Growth inhibition of human LOX IMVI cells after 48 hrs by SRB protein assay; conditions: for TGI: read-out: Log TGI (converted)
[19] = system: SK-MEL-2; test: Growth inhibition of human SK-MEL-2 cells after 48 hrs by SRB protein assay; conditions: SK-MEL-2, 48 h; for TGI: read-out: Log TGI (converted)
[20] = system: SK-MEL-28; test: Growth inhibition of human SK-MEL-28 cells after 48 hrs by SRB protein assay; conditions: SK-MEL-28, 48 h; for TGI: read-out: Log TGI (converted)
[21] = system: UACC-257; test: Growth inhibition of human UACC257 cells after 48 hrs by SRB protein assay; conditions: UACC-257, 48 h; for TGI: read-out: Log TGI (converted)
[22] = system: UACC-62; test: Growth inhibition of human UACC62 cells after 48 hrs by SRB protein assay; conditions: UACC-62, 48 h; for TGI: read-out: Log TGI (converted)
[23] = system: IGROV-1; test: Growth inhibition of human IGROV1 cells after 48 hrs by SRB protein assay; conditions: IGROV-1, 48 h; for TGI: read-out: Log TGI (converted)
[24] = system: OVCAR-3; test: Growth inhibition of human OVCAR-3 cells after 48 hrs by SRB protein assay; conditions: OVCAR-3, 48 h; for TGI: read-out: Log TGI (converted)
[25] = system: OVCAR-8; test: Growth inhibition of human OVCAR8 cells after 48 hrs by SRB protein assay; conditions: OVCAR-8, 48 h; for TGI: read-out: Log TGI (converted)
[26] = system: SK-OV-3; test: Growth inhibition of human SK-OV-3 cells after 48 hrs by SRB protein assay; conditions: SK-OV-3, 48 h; for TGI: read-out: Log TGI (converted)
[27] = Growth inhibition of human 786O cells after 48 hrs by SRB protein assay; conditions: 786-0, 48 h; for TGI: read-out: Log TGI (converted)
[28] = system: ACHN; test: Growth inhibition of human ACHN cells after 48 hrs by SRB protein assay; conditions: for TGI: read-out: Log TGI (converted)
[29] = system: CAKI-1; test: Growth inhibition of human CAKI1 cells after 48 hrs by SRB protein assay; conditions: CAKI-1, 48 h; for TGI: read-out: Log TGI (converted)
[30] = system: RXF 393; test: Growth inhibition of human RXF393 cells after 48 hrs by SRB protein assay; conditions: RXF 393, 48 h; for TGI: read-out: Log TGI (converted)
[31] = system: SN12C; test: Growth inhibition of human SN12C cells after 48 hrs by SRB protein assay; conditions: for TGI: read-out: Log TGI (converted)
[32] = system: UO-31; test: Growth inhibition of human UO31 cells after 48 hrs by SRB protein assay; conditions: UO-31, 48 h; for TGI: read-out: Log TGI (converted)
[33] = system: PC-3; test: Growth inhibition of human PC3 cells after 48 hrs by SRB protein assay; conditions: PC-3, 48 h; for TGI: read-out: Log TGI (converted)
[34] = system: DU-145; test: Growth inhibition of human DU145 cells after 48 hrs by SRB protein assay; conditions: DU-145, 48 h; for TGI: read-out: Log TGI (converted)
[35] = system: MCF7; test: Growth inhibition of human MCF7 cells after 48 hrs by SRB protein assay; conditions: MCF7, 48 h; for TGI: read-out: Log TGI (converted)
[36] = system: MDA-MB-231; test: Growth inhibition of MDA-MB-231 cells after 48 hrs by SRB protein assay; conditions: Homo sapiens, MDA-MB-231, 48 h; for TGI: read-out: Log TGI (converted)
[37] = system: MDA-MB-435; test: Growth inhibition of human MDA-MB-435 cells after 48 hrs by SRB protein assay; conditions: MDA-MB-435, 48 h; for TGI: read-out: Log TGI (converted)
[38] = system: T47D; test: Growth inhibition of human T47D cells after 48 hrs by SRB protein assay; conditions: for TGI: read-out: Log TGI (converted)
[39] = system: OVCAR-5; test: Growth inhibition of human OVCAR5 cells after 48 hrs by SRB protein assay; conditions: OVCAR-5, 48 h; for TGI: read-out: Log TGI (converted)

GI50 [1]: 1.82 µM
GI50 [2]: 2.82 µM
GI50 [3]: 6.17 µM
GI50 [5]: 3.39 µM
GI50 [6]: 15.8 µM
GI50 [7]: 5.25 µM
GI50 [8]: 5.13 µM
GI50 [9]: 3.47 µM
GI50 [10]: 3.24 µM
GI50 [11]: 0.955 µM
GI50 [12]: 6.03 µM
GI50 [13]: 3.98 µM
GI50 [19]: 20.9 µM
GI50 [20]: 12 µM
GI50 [24]: 3.24 µM
GI50 [25]: 2.29 µM
GI50 [26]: 12.9 µM
GI50 [28]: 1.58 µM
GI50 [33]: 4.27 µM
GI50 [34]: 2.88 µM
GI50 [35]: 13.2 µM
GI50 [36]: 3.24 µM
GI50 [37]: 3.31 µM
GI50 [38]: 5.25 µM
GI50 [39]: 5.5 µM
Compound: O=C(Cc1csc2nc(-c3ccc(Br)cc3)cn12)N/N=C/c1ccccc1O
TGI [1]: 8.32 µM
TGI [2]: 20.9 µM
TGI [3]: 24 µM
GI50 [4]: 3.89 µM
TGI [4]: 19.1 µM
TGI [5]: 14.1 µM
TGI [6]: > 100 µM
TGI [7]: 26.9 µM
TGI [8]: 22.9 µM
TGI [9]: 12.6 µM
TGI [10]: 12.3 µM
TGI [11]: 17.4 µM
TGI [12]: 19.1 µM
TGI [13]: 17.4 µM
GI50 [14]: 2.75 µM
TGI [14]: 9.33 µM
GI50 [15]: 3.55 µM
TGI [15]: 11.7 µM
GI50 [16]: 6.76 µM
TGI [16]: 25.1 µM
GI50 [17]: 12.9 µM
TGI [17]: 32.4 µM
GI50 [18]: 3.47 µM
TGI [18]: 12.9 µM
TGI [19]: 53.7 µM
TGI [20]: 24 µM
GI50 [21]: 3.72 µM
TGI [21]: 11.5 µM
GI50 [22]: 2.09 µM
TGI [22]: 7.24 µM
GI50 [23]: 1.05 µM
TGI [23]: 11.5 µM
TGI [24]: 15.1 µM
TGI [25]: 12.3 µM
TGI [26]: 30.2 µM
GI50 [27]: 4.68 µM
TGI [27]: 17.8 µM
TGI [28]: 6.31 µM
GI50 [29]: 0.398 µM
TGI [29]: 2.4 µM
GI50 [30]: 38 µM
TGI [30]: 63.1 µM
GI50 [31]: 3.31 µM
TGI [31]: 15.8 µM
GI50 [32]: 7.08 µM
TGI [32]: > 100 µM
TGI [33]: 16.6 µM
TGI [34]: 13.8 µM
TGI [35]: > 100 µM
TGI [36]: 17 µM
TGI [37]: 13.5 µM
TGI [38]: 23.4 µM
TGI [39]: 31.6 µM

GI50 [1]: 12.3 µM
GI50 [2]: 4.27 µM
GI50 [3]: 10.7 µM
GI50 [5]: 7.59 µM
GI50 [6]: 57.5 µM
GI50 [7]: 10.7 µM
GI50 [8]: 43.7 µM
GI50 [9]: 14.5 µM
GI50 [10]: 10.5 µM
GI50 [11]: 17.8 µM
GI50 [12]: 50.1 µM
GI50 [13]: 31.6 µM
GI50 [19]: 26.3 µM
GI50 [20]: 60.3 µM
GI50 [24]: 24 µM
GI50 [25]: 7.08 µM
GI50 [26]: 52.5 µM
GI50 [28]: 14.8 µM
GI50 [33]: < 0.01 µM
GI50 [34]: 22.4 µM
GI50 [35]: 63.1 µM
GI50 [36]: 10.5 µM
GI50 [37]: 6.31 µM
GI50 [38]: 31.6 µM
GI50 [39]: 27.5 µM
Compound: O=C(Cc1csc2nc(-c3ccc(Br)cc3)cn12)N/N=C/c1ccc(O)cc1
TGI [1]: 79.4 µM
TGI [2]: 39.8 µM
TGI [3]: 33.9 µM
GI50 [4]: 11.5 µM
TGI [4]: 66.1 µM
TGI [5]: 32.4 µM
TGI [6]: > 100 µM
TGI [7]: 34.7 µM
TGI [8]: > 100 µM
TGI [9]: 29.5 µM
TGI [10]: 24 µM
TGI [11]: 61.7 µM
TGI [12]: > 100 µM
TGI [13]: > 100 µM
GI50 [14]: 12 µM
TGI [14]: 41.7 µM
GI50 [15]: 18.2 µM
TGI [15]: 46.8 µM
GI50 [16]: 57.5 µM
TGI [16]: > 100 µM
GI50 [17]: > 100 µM
TGI [17]: > 100 µM
GI50 [18]: 11.2 µM
TGI [18]: 26.3 µM
TGI [19]: 95.5 µM
TGI [20]: 100 µM
GI50 [21]: 1.51 µM
TGI [21]: 7.76 µM
GI50 [22]: 9.12 µM
TGI [22]: 23.4 µM
GI50 [23]: 10.7 µM
TGI [23]: 39.8 µM
TGI [24]: 49 µM
TGI [25]: 25.7 µM
TGI [26]: > 100 µM
GI50 [27]: 26.3 µM
TGI [27]: 89.1 µM
TGI [28]: 51.3 µM
GI50 [29]: 14.8 µM
TGI [29]: 49 µM
TGI [30]: 40.7 µM
GI50 [31]: 15.5 µM
TGI [31]: 43.7 µM
GI50 [32]: 26.3 µM
TGI [32]: > 100 µM
TGI [33]: 23.4 µM
TGI [34]: 87.1 µM
TGI [35]: > 100 µM
TGI [36]: 43.7 µM
TGI [37]: 24.5 µM
TGI [38]: > 100 µM
TGI [39]: > 100 µM
